Measurements from patent US20230121689A1, “CEPHALOSPORIN ANTIBACTERIAL COMPOUND AND PHARMACEUTICAL APPLICATION THEREOF” (priority 2020, published 2023).
Like-named read-outs stand apart in the source and are kept apart here.

Columns and labels:
[1] = Test Example 3: pharmacokinetic study in cynomolgus monkeys; format: in vivo; details: cynomolgus monkey, plasma, 10 mg/kg single intravenous infusion, individual animals
Method: An appropriate amount of a test compound was weighed precisely and added to a container, and 0.9% sodium chloride injection and 0.2 M NaOH solution were added thereto in an ice bath until the test compound was completely dissolved, so that a sample solution at a concentration of 2 mg/mL was obtained followed by storage at 2-8° C. for later use.
Species and strain: cynomolgus monkey Animal grade: general grade Animal source: Guangxi Xiongsen Primate Experimental Animal Breeding Development Co., Ltd. Number of the using of laboratory animal: SYXK (Su) 2019-0012
6 cynomolgus monkeys (half male and half female) were selected and randomly divided into 3 groups with 1 animal/sex in each group. The cynomolgus monkeys were administered with the test sample at a dose of 10 mg/kg by the single intravenous infusion. Blood samples were collected from each group of animals at the following time points: before administration, and 5 min, 15 min, 0.5 h, 1 h, 2 h, 4 h, 6 h, and 8 h after administration. In the test, the concentration of each test compound in the plasma of the cynomolgus monkey was detected by the LC-MS/MS method, and the lower limit of quantification of the analysis methods for the plasma samples were all 1 μg/mL. The plasma concentration data were analyzed by the non-compartmental analysis (NCA) of the analysis software for pharmacokinetic data, WinNonlin, pharmacokinetic parameters were calculated, and pharmacokinetic characteristics of the test compounds in cynomolgus monkeys after administration were investigated, with the results shown in the following table

[2] = system: Control Strain Pseudomonas aeruginosa ATCC 27853; assay: Test Example 2: antibacterial activity test (MIC); format: cell-based; details: ATCC27853, ID-CAMHB, ATCC 27853, read-out: ID-CAMHB, MIC
Method: (§1) 1. The test compounds were dissolved in sterile normal saline, vortexed for uniformly mixing, and diluted in a 2-fold dilution with the sterile normal saline (11 concentration points in total). The test concentration range was 32-0.031 μg/mL, and two duplicate wells were set for each concentration. Additional wells without drug dosing were set as growth controls. 2. 4 μL of the diluent was added to 196 μL of the bacterial suspension in a 96-well plate (the bacterial count in the bacterial suspension was 2-8×10^5 colony forming units/mL). 3.
(§2) The minimum inhibitory concentration (MIC) assay was performed with reference to the Clinical and Laboratory Standards Institute (CLSI) guidelines.

[3] = system: Carbapenem-resistant Acinetobacter baumannii (CRAB, Acinetobacter baumannii); assay: Test Example 2: antibacterial activity test (MIC); format: cell-based; details: ID-CAMHB, read-out: ID-CAMHB, MIC
Method: as §1, §2

[4] = system: Carbapenem-resistant Enterobacteriaceae (CRE, Klebsiella pneumoniae); assay: Test Example 2: antibacterial activity test (MIC); format: cell-based; details: ID-CAMHB, read-out: ID-CAMHB, MIC
Method: as §1, §2

[5] = system: Carbapenem-resistant Pseudomonas aeruginosa (CRPA, Pseudomonas aeruginosa); assay: Test Example 2: antibacterial activity test (MIC); format: cell-based; details: ID-CAMHB, read-out: ID-CAMHB, MIC
Method: as §1, §2

[6] = system: Control strain Escherichia coli ATCC 25922; assay: Test Example 2: antibacterial activity test (MIC); format: cell-based; details: ATCC25922, ID-CAMHB, ATCC 25922, read-out: ID-CAMHB, MIC
Method: as §1, §2

[7] = both sexes, cynomolgus, iv, 10 mg/kg

AUC(0-inf) [1, 7]: 32900 ng·h/mL | AUC(0-t) [1, 7]: 29300 ng·h/mL | clearance [1, 7]: 5.06 mL/min/kg | half-life [1, 7]: 37.2 min | Cmax ([1]; both sexes, cynomolgus, iv, 10 mg/kg, read-out: Cmax): 35500 ng/mL | MRT ([1]; both sexes, cynomolgus, iv, 10 mg/kg, read-out: MRT): 38.4 min | Vd ([1]; both sexes, cynomolgus, iv, 10 mg/kg, read-out: Vd): 0.27 L/kg | Tmax ([1]; both sexes): 4.8 min | AUC last ([1]; 10 mg/kg): 23440 ng·h/mL | AUCinf ([1]; 10 mg/kg): 25640 ng·h/mL | CL ([1]; 10 mg/kg): 6.5002 mL/min/kg | Cmax ([1]; 10 mg/kg): 30640 ng/mL | MRT ([1]; 10 mg/kg): 37.2 min | Vd ([1]; 10 mg/kg): 0.31334 L/kg | t1/2 ([1]; 10 mg/kg): 33.6 min | MIC [2]: 0.0625 µg/mL | MIC ([3]; FDA-CDC AR-BANK #0036 (strB, OXA-65, OXA-24, strA, sul2)): 0.125 µg/mL | MIC ([3]; FDA-CDC AR-BANK #0052 (OXA-58, OXA-100, sul2)): 0.0625 µg/mL | MIC ([3]; FDA-CDC AR-BANK #0063 (OXA-23, OXA-65, OXA-24, sul2)): > 32 µg/mL | MIC ([3]; FDA-CDC AR-BANK #0070 (OXA-58, OXA-100, sul2)): 0.125 µg/mL | MIC ([3]; FDA-CDC AR-BANK #0101 (strB, OXA-65, OXA-24, strA, sul2)): 0.5 µg/mL | MIC ([4]; FDA-CDC AR-BANK #0361 (TEM-1; SHV-12; KPC-2)): 0.25 µg/mL | MIC ([4]; FDA-CDC AR-BANK #0363 (TEM-1; SHV-12; KPC-2)): 0.125 µg/mL | MIC ([4]; FDA-CDC AR-BANK #0438 (aph(3′)-Ia, dfrA12, KPC-3, OmpK35, oqxA, oqxB, SHV-11)): 0.5 µg/mL | MIC ([4]; FDA-CDC AR-BANK #0453 (KPC-3, OmpK35, oqxA, oqxB, SHV-11, TEM-1B)): 2 µg/mL | MIC ([5]; FDA-CDC AR-BANK #0439 (aac(6′)-Il, aadA1b, BCR1, IMP-18, OXA-50)): 0.25 µg/mL | MIC ([5]; FDA-CDC AR-BANK #0441 (KPC-2)): 1 µg/mL | MIC ([5]; FDA-CDC AR-BANK #0444 (aac(6′)-Il, dfrB5, OXA-4, tet(G), VIM-2)): 16 µg/mL | MIC ([5]; FDA-CDC AR-BANK #0457 (aadA6, VIM-2)): 0.0625 µg/mL | MIC [6]: 0.0625 µg/mL
Compound: CC(C)(O/N=C(\C(=O)N[C@@H]1C(=O)N2C(C(=O)O)=C(C[N+]3(CCN(CCCNC(=O)c4ccc(O)c(O)c4Cl)C(=O)c4ccc(O)c(O)c4Cl)CCCC3)CS[C@H]12)c1csc(N)n1)C(=O)O [Compound 10]
